Results published in patent US9856218B2, “Inhibitors of PRMT5 and methods of their use” (Ohio State Innovation Foundation, priority 2013, dated 2018).
pEC50, pIC50: −log10 of the molar value.

What was measured:
[1] = system: Mantle cell lymphoma cell line Jeko; assay: MTS anti-proliferation assay; assay type: cell-based
Experimental: MTS proliferation assays were performed according the CellTiter 96™ Aqueous Cell Proliferation Assay Technical Bulletin (Promega, Madison, Wis.). 5×10^5 cells were plated in each well of a 96-well plate at 37° C. and assayed for proliferation at 24, 48, and 72 hr. Proliferation signal at 50% of control was used as IC50 for growth.
(§1) Following the synthesis of 14 compounds, the anti-proliferation and pro-apoptotic activities of those compounds was evaluated in Mantle cell lymphoma cell line Jeko. Replicate cultures of Jeko were incubated in DMSO and the compounds for 24, 48 and 72 hours. FITC-Annexin V-PI stained flow cytometry was used to detect the apoptotic population of cells (Table 4).

[2] = system: Mantle cell lymphoma cell line Jeko; assay: Induction of apoptosis, FITC-Annexin V-PI flow cytometry; assay type: cell-based
Experimental: Analysis by flow cytometry. Cell viability was also measured by flow cytometry at 24 and 48 hr using annexin-V-FITC and propidium iodide (PI) according to the manufacturer's instructions (BD Biosciences).
as §1

[3] = molecular target: T1, recombinant human PRMT5/MEP50 enzyme (Homo sapiens, UniProt O14744); assay: Epigenase PRMT methyltransferase (type II-specific) activity/inhibition assay kit; assay type: biochemical; conditions: 25 ng recombinant human PRMT5/MEP50 per reaction; read-out: Inhibition of PRMT5 mediated H4R3 methylation (IC50)
T1 construct: purchased BPS Bioscience
T1 sequence (O14744 2-637 limits assumed): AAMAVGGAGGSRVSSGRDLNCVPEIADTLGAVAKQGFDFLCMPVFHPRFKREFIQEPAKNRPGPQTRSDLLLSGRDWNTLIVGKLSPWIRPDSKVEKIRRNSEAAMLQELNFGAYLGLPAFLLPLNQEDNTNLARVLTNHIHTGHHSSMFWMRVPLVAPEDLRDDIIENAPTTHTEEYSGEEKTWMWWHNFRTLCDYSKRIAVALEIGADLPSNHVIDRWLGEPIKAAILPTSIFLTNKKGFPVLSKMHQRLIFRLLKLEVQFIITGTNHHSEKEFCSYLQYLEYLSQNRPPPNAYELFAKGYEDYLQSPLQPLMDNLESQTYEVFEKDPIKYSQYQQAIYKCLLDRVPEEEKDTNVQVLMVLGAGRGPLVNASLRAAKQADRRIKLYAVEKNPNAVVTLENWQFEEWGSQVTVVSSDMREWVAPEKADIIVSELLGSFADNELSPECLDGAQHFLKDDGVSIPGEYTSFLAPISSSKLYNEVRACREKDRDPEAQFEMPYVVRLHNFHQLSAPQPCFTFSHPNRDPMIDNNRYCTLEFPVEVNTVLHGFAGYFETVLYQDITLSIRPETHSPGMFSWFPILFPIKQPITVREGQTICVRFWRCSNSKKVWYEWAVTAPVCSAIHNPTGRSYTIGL
T1 sequence (Q9BQA1 2-342 partner limits assumed): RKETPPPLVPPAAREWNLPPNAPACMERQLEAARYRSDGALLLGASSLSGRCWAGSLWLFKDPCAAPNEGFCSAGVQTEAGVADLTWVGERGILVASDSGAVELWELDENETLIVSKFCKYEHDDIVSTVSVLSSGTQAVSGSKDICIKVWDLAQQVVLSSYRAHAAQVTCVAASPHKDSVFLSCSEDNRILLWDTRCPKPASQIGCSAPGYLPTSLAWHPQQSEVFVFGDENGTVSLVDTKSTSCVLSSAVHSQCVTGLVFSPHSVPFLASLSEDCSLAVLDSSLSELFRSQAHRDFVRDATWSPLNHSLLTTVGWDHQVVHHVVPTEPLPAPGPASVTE
Experimental: The inhibition of PRMT5 mediated H4R3 methylation result was obtained with Epigenase™ PRMT methyltransferase (type II-specific) activity/inhibition assay kit. 25 ng recombinant human PRMT5/MEP50 enzyme (purchased from BPS Bioscience) was used in each reaction.

HNSCC tumor cells = assay: Proliferation of HNSCC tumor cells; assay type: cell-based; conditions: FIG. 58
[4] = In vivo pharmacokinetics, plasma concentration; parameters: species or system Mouse; conditions: mouse, in vivo
Excerpt: Pharmacokinetic data of compounds HLCL-7, HLCL-61, and HLCL-66 taken from an in vivo study is illustrated in Table 10. […]

[5] = 24 hr Quick MTD test, one mouse for each dose; assay type: in vivo
Experimental: (§2) Controlled shRNA depletion was evaluated in a murine lymphoma model (Eμ-BRD2 (Chung, J., et al. (2013) J. Biological Chemistry 288, 35534-35547)) and human xenograft model of glioblastoma (Yan, F., et al (2014) Cancer Research In Press). Referring to FIG. 62A, controlled expression of a PRMT5 shRNA (solid line) but not control shRNA (dashed line) leads to 100% survival of mice engrafted primary DLBCL tumor cells. […] The maximum tolerated dose (MTD, single dose) was identified at 50 mg/kg (see Table 11 below). A sub-toxic dose (25 mg/kg) was used to treat FcMCL mice. Control mice developed peripheral blood and lymph node tumor burden starting day 20 post-engraftment.

[6] = MTD study, four mice each dose; assay type: in vivo; conditions: mouse, in vivo, ip
Experimental: as §2

OG2 cells = assay: Viability/apoptosis assay alone and in combination with temozolomide; assay type: cell-based; conditions: in combination with TMZ, FIG. 13
Excerpt: OG2 cells are tumor cells derived from glioblastoma primary tumors.

multiple cell lines = assay: Proliferation of multiple cell lines (FIG. 59); assay type: cell-based; conditions: FIG. 59A-E
Experimental: Proliferation of multiple cell lines was evaluated for CMPD 5, CMPD 7, HLCL61, HLCL-65, and HLCL-66 (FIG. 59A-E).

CAL-27 cell line = assay: Migration scratch assay; assay type: cell-based; conditions: CAL-27, 16 h and 24 h
Experimental: Referring to FIG. 60, PRMT5 and squamous cell carcinoma migration in response to HLCL-66 is illustrated. Migration was performed as previously described (Nowicki, M. O., et al. (2008) Neuro. Oncol. 10, 690-699). Briefly, a migration scratch assay was performed with CAL-27 cell line treated with HLCL-66 for 0, 16, and 24 hours.

In the case of `CCn1c2ccccc2c2cc(NC(=N)Nc3ccc(S(C)(=O)=O)cc3)ccc21` [HLCL-7], the pIC50 ([1]; 24 h incubation) was 4.49, the pIC50 ([1]; 48 h incubation) was 4.59 and the pIC50 ([1]; 72 h incubation) was 4.89. It also gave a pEC50 ([2]; 24 h) of 4.49, a pEC50 ([2]; 48 h) of 4.59 and a pIC50 [3] of 5.15. The “proliferation of HNSCC tumor cells” value (HNSCC tumor cells) was “inhibit proliferation in a dose-dependent manner”, the concentration at 0.08 h ([4]; ip, 25 mg/kg) was 7.57 µM and the concentration at 0.17 h ([4]; ip, 25 mg/kg) was 0.886 µM. The concentration at 0.33 h ([4]; ip, 25 mg/kg) was 7.54 µM, the concentration at 0.5 h ([4]; ip, 25 mg/kg) was 7.48 µM and the concentration at 1 h ([4]; ip, 25 mg/kg) was 4.91 µM. For the same molecule, the concentration at 2 h ([4]; ip, 25 mg/kg) was 7.68 µM, the concentration at 4 h ([4]; ip, 25 mg/kg) was 4.13 µM and the concentration at 6 h ([4]; ip, 25 mg/kg) was 2.54 µM. For the same molecule, the concentration at 8 h ([4]; ip, 25 mg/kg) was 2.79 µM, the concentration at 24 h ([4]; ip, 25 mg/kg) was 0.00135 µM and the concentration at 0.08 h ([4]; iv, 5 mg/kg) was 3.24 µM. It also gave a concentration at 0.17 h ([4]; iv, 5 mg/kg) of 3.07 µM, a concentration at 0.33 h ([4]; iv, 5 mg/kg) of 1.5 µM and a concentration at 0.5 h ([4]; iv, 5 mg/kg) of 0.911 µM. It also gave a concentration at 1 h ([4]; iv, 5 mg/kg) of 0.601 µM, a concentration at 2 h ([4]; iv, 5 mg/kg) of 0.507 µM and a concentration at 4 h ([4]; iv, 5 mg/kg) of 0.2 µM. For the same molecule, the concentration at 6 h ([4]; iv, 5 mg/kg) was 0.0762 µM, the concentration at 8 h ([4]; iv, 5 mg/kg) was 0.0771 µM and the concentration at 24 h ([4]; iv, 5 mg/kg) was 0.00138 µM. For the same molecule, the survival after dosing ([5]; IV-2.5 mg/kg, one mouse) was “Alive 24 hr after”, the survival after dosing ([5]; mouse, in vivo, ip, 50 mg/kg, 24 h) was “Alive 24 hr after” and the survival after dosing ([5]; mouse, in vivo, ip, 100 mg/kg, 24 h) was “Dead within 1 hr after”. For the same molecule, the survival after dosing ([5]; mouse, in vivo, ip, 200 mg/kg, 24 h) was “Dead within 1 hr after”, the survival after dosing ([5]; mouse, in vivo, iv, 5 mg/kg, 24 h) was “Alive 24 hr after” and the “clinical signs after dosing (slow moving)” value ([5]; mouse, in vivo, iv, 10 mg/kg) was “dosing but slow”. For the same molecule, the survival after dosing ([5]; mouse, in vivo, iv, 10 mg/kg, 24 h) was “Alive 24 hr after”, the survival after dosing ([5]; mouse, in vivo, iv, 20 mg/kg) was “Dead instantly after” and the “survival 24 hr after dosing” value ([6]; 5 mg/kg, 24 h) was “Alive 24 hr after”. The “condition within 1 hr after dosing (alive but slow moving)” value ([6]; 50 mg/kg) was “Alive within 1 hr after”, the “mice lethargic and slow moving 24 hr after dosing” value ([6]; 50 mg/kg, 24 h) was “after dosing, 1 out 4” and the “survival 24 hr after dosing” value ([6]; 50 mg/kg, 24 h) was “moving. Alive 24 hr”.
For `CCn1c2ccccc2c2cc(/C=C/C(=O)c3ccccc3OC)ccc21` [HLCL-66], the pIC50 ([1]; 24 h incubation) was 5.72, the pIC50 ([1]; 48 h incubation) was 6.40 and the pIC50 ([1]; 72 h incubation) was 6.70. It also gave a pEC50 ([2]; 24 h) of 5.85, a pEC50 ([2]; 48 h) of 6.30 and a pIC50 [3] of 4.59. For the same molecule, the “induction of apoptosis in combination” value (OG2 cells) was “synergistic”, the “potency, proliferation of multiple cell lines” value (multiple cell lines) was “low micromolar range” and the “gap closure (migration)” value (CAL-27 cell line) was “affected in a dose-response fashion”.
